Measurements taken from ChEMBL document CHEMBL2311494, “Syntheses and evaluation of the antioxidant activity of novel methoxypsoralen derivatives” (Eur J Med Chem, 2013).
Activity calls are given as the source filed them. No cut-off for these calls is given here.

Key:
[1] = Inhibition of soybean LOX using sodium linoleate as substrate by spectrophotometric analysis; set-up: species or system Glycine max
[2] = test system: Radical scavenging activity; assay: Antioxidant activity assessed as DPPH radical scavenging activity at 100 uM after 60 mins by spectrophotometric analysis; assay type: functional
[3] = test system: Radical scavenging activity; assay: Antioxidant activity assessed as DPPH radical scavenging activity at 100 uM after 20 mins by spectrophotometric analysis; assay type: functional
Rattus norvegicus [4] = assay: Toxicity against Fischer-344 rat up to 0.1 mmol/kg, ip; assay type: organism-based; settings: in vivo
[5] = Antioxidant activity assessed as inhibition of AAPH-induced linoleic acid lipid peroxidation at 100 uM by spectrophotometric analysis; assay type: functional
[6] = Cytotoxicity against human 1BR3 cells assessed as cell viability at 1 uM after 24 hrs by MTT assay; assay type: cell-based; settings: read-out: Activity
[7] = Cytotoxicity against human 1BR3 cells assessed as cell viability at 100 uM after 24 hrs by MTT assay; assay type: cell-based; settings: read-out: Activity
[8] = Cytotoxicity against human 1BR3 cells assessed as cell viability at 10 uM after 24 hrs by MTT assay; assay type: cell-based; settings: read-out: Activity
[9] = Cytotoxicity against human 1BR3 cells assessed as cell viability at 20 uM after 24 hrs by MTT assay; assay type: cell-based; settings: read-out: Activity
[10] = Cytotoxicity against human 1BR3 cells assessed as cell viability at 50 uM after 24 hrs by MTT assay; assay type: cell-based; settings: read-out: Activity
Rattus norvegicus [11] = assay: Antiinflammatory activity in Fischer-344 rat assessed as inhibition of carrageenan-induced paw edema at 0.01 mmol/kg, ip after 3.5 hrs relative to control; assay type: functional; settings: Fischer-344, ip
Glycine max = assay: Inhibition of soybean LOX using sodium linoleate as substrate at 100 uM by spectrophotometric analysis

COc1c2occc2c(/C=C/C(=O)OCc2cccc(Oc3ccccc3)c2)c2ccc(=O)oc12
IC50 ([1]; read-out: IC50): 55 µM
Activity [2]: 9%
Activity [3]: 7%
Activity (Rattus norvegicus [4]): Non-toxic
inhibition [5]: 89%

COc1c2occc2cc2ccc(=O)oc12 [METHOXSALEN]
IC50 ([1]; read-out: IC50): 50 µM
viability at 24 h, 1 µM [6]: 101%
viability at 24 h, 100 µM [7]: 89.6%
Activity [2]: 16%
Activity [3]: 16%
viability at 24 h, 10 µM [8]: 98.1%
viability at 24 h, 20 µM [9]: 96.7%
viability at 24 h, 50 µM [10]: 92%
inhibition [5]: 5%

O=c1ccc2c(O)c3ccoc3c(Br)c2o1
IC50 ([1]; read-out: IC50): 30.5 µM
viability at 24 h, 1 µM [6]: 97%
viability at 24 h, 100 µM [7]: 91%
Activity [2]: 56%
Activity [3]: 20%
viability at 24 h, 10 µM [8]: 92.8%
viability at 24 h, 20 µM [9]: 95.2%
viability at 24 h, 50 µM [10]: 91.6%
inhibition [5]: 81%

COc1c2occc2c(-c2ccc(/C=C/C(=O)OC(C)(C)C)cc2)c2ccc(=O)oc12
IC50 ([1]; read-out: IC50): 7.5 µM
viability at 24 h, 1 µM [6]: 98.8%
viability at 24 h, 100 µM [7]: 46.3%
Activity [2]: 18%
Activity [3]: 15%
inhibition in vivo at 10 µmol/kg (Rattus norvegicus [11]): 26.2%
viability at 24 h, 10 µM [8]: 74.1%
viability at 24 h, 20 µM [9]: 67.9%
viability at 24 h, 50 µM [10]: 66.3%
Activity (Rattus norvegicus [4]): Non-toxic
inhibition [5]: 72%

COc1c2occc2c(-c2ccc(/C=C/C(=O)O)cc2)c2ccc(=O)oc12
IC50 ([1]; read-out: IC50): 62 µM
Activity [2]: 44%
Activity [3]: 41%
Activity (Rattus norvegicus [4]): Non-toxic
inhibition [5]: 12%

COc1c2occc2c(C(C)=O)c2ccc(=O)oc12
IC50 ([1]; read-out: IC50): 100 µM
Activity [2]: 8%
Activity [3]: 8%
inhibition [5]: 85%

O=c1ccc2c(O)c3ccoc3cc2o1 [BERGAPTOL]
IC50 ([1]; read-out: IC50): 41.5 µM
Activity [2]: 36%
Activity [3]: 34%
inhibition [5]: 95%

CCOC(=O)/C=C/c1c2ccoc2c(OC)c2oc(=O)ccc12
IC50 ([1]; read-out: IC50): 75 µM
Activity [2]: 6%
Activity [3]: 5%
Activity (Rattus norvegicus [4]): Non-toxic
inhibition [5]: 83%

COc1c2occc2c(-c2ccc(C(=O)O)cc2)c2ccc(=O)oc12
IC50 [1]: Not Active
Activity [2]: 15%
Activity [3]: 11%
Activity (Rattus norvegicus [4]): Non-toxic
inhibition [5]: 100%

COc1c2occc2c(/C=C/C(=O)OC(C)(C)C)c2ccc(=O)oc12
IC50 [1]: Not Active
Activity [2]: 3%
Activity [3]: 3%
Activity (Rattus norvegicus [4]): Non-toxic
inhibition [5]: 89%

COc1c2ccoc2c(/C=C/C(=O)O)c2oc(=O)ccc12
IC50 ([1]; read-out: IC50): 83 µM
Activity [2]: 14%
Activity [3]: 14%
Activity (Rattus norvegicus [4]): Non-toxic
inhibition [5]: 55%

CCOC(=O)/C=C/c1c2occc2c(OC)c2ccc(=O)oc12
IC50 [1]: Not Active
Activity [2]: inactive
Activity [3]: inactive
Activity (Rattus norvegicus [4]): Non-toxic
inhibition [5]: 8%

Cc1oc2c(C)c3oc(=O)cc(C)c3cc2c1/C=C/C(=O)OC(C)(C)C
IC50 ([1]; read-out: IC50): 9.4 µM
viability at 24 h, 1 µM [6]: 67.9%
viability at 24 h, 100 µM [7]: 22.2%
Activity [2]: 11%
Activity [3]: 11%
inhibition in vivo at 10 µmol/kg (Rattus norvegicus [11]): 46%
viability at 24 h, 10 µM [8]: 55.6%
viability at 24 h, 20 µM [9]: 37%
viability at 24 h, 50 µM [10]: 34.6%
Activity (Rattus norvegicus [4]): Non-toxic
inhibition [5]: 80%

CC(=O)c1c(C)oc2c(C)c3oc(=O)cc(C)c3cc12
IC50 ([1]; read-out: IC50): 79 µM
Activity [2]: 14%
Activity [3]: 14%
inhibition [5]: 67%

Cc1oc2c(C)c3oc(=O)cc(C)c3cc2c1/C=C/C(=O)O
inhibition (Glycine max): 9%
Activity [2]: 11%
Activity [3]: 11%
Activity (Rattus norvegicus [4]): Non-toxic
inhibition [5]: 73%

Cc1cc2cc3c(C)cc(=O)oc3c(C)c2o1 [TRIOXSALEN]
inhibition (Glycine max): 40%
viability at 24 h, 1 µM [6]: 107%
viability at 24 h, 100 µM [7]: 95.2%
Activity [2]: inactive
Activity [3]: inactive
viability at 24 h, 10 µM [8]: 96.7%
viability at 24 h, 20 µM [9]: 95.2%
viability at 24 h, 50 µM [10]: 92.2%
inhibition [5]: inactive

COc1c2ccoc2c(-c2ccc(C(=O)O)cc2)c2oc(=O)ccc12
IC50 ([1]; read-out: IC50): 60 µM
Activity [2]: 19%
Activity [3]: 22%
Activity (Rattus norvegicus [4]): Non-toxic
inhibition [5]: 66%

CCOC(=O)/C=C/c1c(C)oc2c(C)c3oc(=O)cc(C)c3cc12
IC50 [1]: Not Active
Activity [2]: 60%
Activity [3]: 8%
Activity (Rattus norvegicus [4]): Non-toxic
inhibition [5]: 77%

COc1ccc2c(c1)c(CC(=O)O)c(C)n2C(=O)c1ccc(Cl)cc1 [INDOMETHACIN]
inhibition in vivo at 10 µmol/kg (Rattus norvegicus [11]): 47%
Activity (Rattus norvegicus [4]): Non-toxic

COc1c2ccoc2c(Br)c2oc(=O)ccc12
IC50 ([1]; read-out: IC50): 90 µM
Activity [2]: 7%
Activity [3]: 7%
inhibition [5]: 83%

CC(Cc1ccc(O)c(O)c1)C(C)Cc1ccc(O)c(O)c1 (stereo unspecified)
Activity [2]: 83%
Activity [3]: 81%

Cc1oc2c(C)c3oc(=O)cc(C)c3cc2c1-c1ccc(C(=O)O)cc1
IC50 [1]: Not Active
Activity [2]: inactive
Activity [3]: inactive
Activity (Rattus norvegicus [4]): Non-toxic
inhibition [5]: 80%

COc1c2occc2c(/C=C/C(=O)O)c2ccc(=O)oc12
IC50 ([1]; read-out: IC50): 50 µM
Activity [2]: 7%
Activity [3]: 7%
Activity (Rattus norvegicus [4]): Non-toxic
inhibition [5]: 62%

COc1c2occc2c(Br)c2ccc(=O)oc12
IC50 ([1]; read-out: IC50): 40 µM
Activity [2]: 8%
Activity [3]: 8%
inhibition [5]: 62%

O=c1ccc2cc3ccoc3c(O)c2o1 [XANTHOTOXOL]
IC50 ([1]; read-out: IC50): 89 µM
Activity [2]: 22%
Activity [3]: 25%
inhibition [5]: 5%

Cc1c(C)c2c(c(C)c1O)CCC(C)(C(=O)O)O2 (stereo unspecified)
inhibition [5]: 63%

CCCCOC(=O)/C=C/c1c2ccoc2c(OC)c2oc(=O)ccc12
IC50 ([1]; read-out: IC50): 6 µM
viability at 24 h, 1 µM [6]: 96.7%
viability at 24 h, 100 µM [7]: 90.3%
Activity [2]: 7%
Activity [3]: 5%
inhibition in vivo at 10 µmol/kg (Rattus norvegicus [11]): 57%
viability at 24 h, 10 µM [8]: 99.3%
viability at 24 h, 20 µM [9]: 99.6%
viability at 24 h, 50 µM [10]: 98.9%
Activity (Rattus norvegicus [4]): Non-toxic
inhibition [5]: 79%

COc1c2ccoc2cc2oc(=O)ccc12 [BERGAPTEN]
IC50 [1]: Not Active
viability at 24 h, 1 µM [6]: 105%
viability at 24 h, 100 µM [7]: 88.9%
Activity [2]: 14%
Activity [3]: 14%
viability at 24 h, 10 µM [8]: 102%
viability at 24 h, 20 µM [9]: 99.4%
viability at 24 h, 50 µM [10]: 91.7%
inhibition [5]: 49%

Cc1oc2c(C)c3oc(=O)cc(C)c3cc2c1Br
IC50 [1]: Not Active
Activity [2]: 100%
Activity [3]: inactive
inhibition [5]: 35%

COc1c2ccoc2c(-c2ccc(/C=C/C(=O)O)cc2)c2oc(=O)ccc12
IC50 ([1]; read-out: IC50): 24 µM
viability at 24 h, 1 µM [6]: 65.6%
viability at 24 h, 100 µM [7]: 13.3%
Activity [2]: 28%
Activity [3]: 22%
viability at 24 h, 10 µM [8]: 55.6%
viability at 24 h, 20 µM [9]: 24.7%
viability at 24 h, 50 µM [10]: 18.5%
Activity (Rattus norvegicus [4]): Non-toxic
inhibition [5]: 55%

COc1c2ccoc2c(-c2ccc(/C=C/C(=O)OC(C)(C)C)cc2)c2oc(=O)ccc12
IC50 ([1]; read-out: IC50): 100 µM
Activity [2]: 12%
Activity [3]: 8%
Activity (Rattus norvegicus [4]): Non-toxic
inhibition [5]: 77%

COc1c2ccoc2c(/C=C/C(=O)OC(C)(C)C)c2oc(=O)ccc12
IC50 [1]: Not Active
Activity [2]: inactive
Activity [3]: inactive
Activity (Rattus norvegicus [4]): Non-toxic
inhibition [5]: 79%

Cc1oc2c(C)c3oc(=O)cc(C)c3cc2c1-c1ccc(/C=C/C(=O)O)cc1
inhibition (Glycine max): 13%
Activity [2]: inactive
Activity [3]: inactive
Activity (Rattus norvegicus [4]): Non-toxic
inhibition [5]: 84%

Cc1oc2c(C)c3oc(=O)cc(C)c3cc2c1-c1ccc(/C=C/C(=O)OC(C)(C)C)cc1
inhibition (Glycine max): 33%
Activity [2]: inactive
Activity [3]: inactive
Activity (Rattus norvegicus [4]): Non-toxic
inhibition [5]: 41%

O=c1ccc2c(Br)c3ccoc3c(O)c2o1
IC50 ([1]; read-out: IC50): 50 µM
Activity [2]: 43%
Activity [3]: 33%
inhibition [5]: 83%
